Counter-ions that a name gives are not always drawn.
Key:
[1] = Stability / hygroscopicity (no method); type: physicochemical; settings: in words; derivative (B), racemate; no data
[2] = in words; free form (racemate), as described in EP-A-0483772; cited from earlier work
[3] = tested on: behavioral change induced by spinal intrathecal injection of FeCl2 (ferrous chloride); experiment: Change of behavior induced by spinal intrathecal injection of FeCl2 in mice; type: in vivo, male Slc:ICR mice (printed "SIc: IcR mice"); settings: 25 mg/kg oral; for Mean Score, 25 mg/kg Administered: behavior observed 15 min to 1 h after intrathecal 50 mM FeCl2, 5 μl/mouse, 10 mice per group, score 0 (normal) to 5 (death); for Percent Suppression (%): calculated from the mean behavioral scores, FeCl2 intrathecal, mice
Source text: Effect on drugs on the change of behavior induced by spinal in intrathecal injection of FeCl2 in mice.
Male SIc: IcR mice (5 weeks) (10 mice per group) were used. […] The following criteria were used to score behavioral changes.
1: Frequent bites to lower limbs and lower abdomen.
2: One of the following three responses is seen: a) Violent bites to lower half of body, with occasionally rolling b) Hypersensitive aggressive behavior in response to external stimulation […]
4: Tonic convulsion, or unilateral or bilateral limb paralysis […]
Percent inhibitions were calculated from the scores obtained as above (percent inhibition=[(5-score)/5]×100). The subject compound salt was orally administered during the 30-minute period following administration of ferrous chloride.

Row | SMILES | hygroscopicity and stability [1] | water solubility of the free form [2] | Mean Score, 25 mg/kg Administered [3] | Percent Suppression (%) [3] [%]
1 | Cc1c(C)c2c(c(C)c1N)CC(C)(CN1CCC(c3ccccc3)CC1)O2 (racemic) [Derivative (B), 5-amino-2,4,6,7-tetramethyl-2-(4-phenylpiperidinomethyl)-2,3-dihydrobenzo[b]furan] | hygroscopic and hence unstable | sparingly water-soluble |  | 
2 | Cc1c(C)c2c(c(C)c1N)C[C@@](C)(CN1CCC(c3ccccc3)CC1)O2 [Example 3, (S)--(+)-5-amino-2,4,6,7-tetramethyl-2-(4-phenylpiperidinomethyl)-2,3-dihydrobenzo [b]furan dihydrochloride] |  |  | 0.2 | 96
3 | Cc1c(C)c2c(c(C)c1N)C[C@](C)(CN1CCC(c3ccccc3)CC1)O2 [Example 4, (R)--(-)-5-amino-2,4,6,7-tetramethyl-2-(4-phenylpiperidinomethyl)-2,3-dihydrobenzo [b]furan dihydrochloride] |  |  | 1.3 | 72.3

Reference: patent publication US5552552A, “Crystalline salts of optically active aminocoumaran derivatives, their production and use” (Takeda Chemical Industries, Ltd., priority 1992, dated 1996)
